Experimental findings from patent publication US20220009920A1 (GB005, Inc., priority 2020, published 2022) are described below.

One may read the inhibition as the drop in the measured response relative to a control, in per cent.

Holding throughout (experiment): Large panel kinase profiling
Holding throughout (format): biochemical
Holding throughout (conditions): 1 μM test article, 1 mM ATP

For assay [1], the target named is T1, MARK1 (Homo sapiens, UniProt Q9P0L2).
T1 construct: AssayQuant Technologies, Inc. (assay service)
T1 sequence (Q9P0L2 whole entry, species assumed): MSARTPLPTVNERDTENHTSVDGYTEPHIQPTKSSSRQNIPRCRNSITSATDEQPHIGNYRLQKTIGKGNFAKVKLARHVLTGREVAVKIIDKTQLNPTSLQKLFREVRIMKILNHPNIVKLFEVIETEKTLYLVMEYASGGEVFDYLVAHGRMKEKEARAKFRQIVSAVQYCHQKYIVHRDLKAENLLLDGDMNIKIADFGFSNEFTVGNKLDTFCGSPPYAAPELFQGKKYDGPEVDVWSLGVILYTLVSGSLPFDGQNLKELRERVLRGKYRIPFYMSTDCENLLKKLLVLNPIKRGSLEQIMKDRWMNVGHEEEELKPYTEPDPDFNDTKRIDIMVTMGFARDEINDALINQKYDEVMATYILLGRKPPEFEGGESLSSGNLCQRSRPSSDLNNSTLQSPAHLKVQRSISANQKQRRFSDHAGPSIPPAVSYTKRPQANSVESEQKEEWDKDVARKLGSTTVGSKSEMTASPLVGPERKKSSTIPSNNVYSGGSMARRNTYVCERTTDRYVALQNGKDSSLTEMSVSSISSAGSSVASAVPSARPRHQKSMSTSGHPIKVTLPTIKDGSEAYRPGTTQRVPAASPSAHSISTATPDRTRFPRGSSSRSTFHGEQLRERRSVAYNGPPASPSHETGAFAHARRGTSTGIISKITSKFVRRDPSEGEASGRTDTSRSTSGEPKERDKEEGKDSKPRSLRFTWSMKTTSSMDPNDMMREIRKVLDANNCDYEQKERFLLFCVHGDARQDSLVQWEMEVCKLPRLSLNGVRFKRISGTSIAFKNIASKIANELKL
The procedure, abridged:
(§1)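 Steps: combine kinase, CSox-Sensor substrate, 1 mM ATP and 1 μM compound; seal and incubate at 30° C.; read top fluorescence kinetically each minute, Ex 360 nm/Em 485 nm.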

Assay [2] deals with T2, FYNA (Homo sapiens, UniProt P06241).
T2 construct: AssayQuant Technologies, Inc. (service provider)
T2 sequence (P06241 whole entry): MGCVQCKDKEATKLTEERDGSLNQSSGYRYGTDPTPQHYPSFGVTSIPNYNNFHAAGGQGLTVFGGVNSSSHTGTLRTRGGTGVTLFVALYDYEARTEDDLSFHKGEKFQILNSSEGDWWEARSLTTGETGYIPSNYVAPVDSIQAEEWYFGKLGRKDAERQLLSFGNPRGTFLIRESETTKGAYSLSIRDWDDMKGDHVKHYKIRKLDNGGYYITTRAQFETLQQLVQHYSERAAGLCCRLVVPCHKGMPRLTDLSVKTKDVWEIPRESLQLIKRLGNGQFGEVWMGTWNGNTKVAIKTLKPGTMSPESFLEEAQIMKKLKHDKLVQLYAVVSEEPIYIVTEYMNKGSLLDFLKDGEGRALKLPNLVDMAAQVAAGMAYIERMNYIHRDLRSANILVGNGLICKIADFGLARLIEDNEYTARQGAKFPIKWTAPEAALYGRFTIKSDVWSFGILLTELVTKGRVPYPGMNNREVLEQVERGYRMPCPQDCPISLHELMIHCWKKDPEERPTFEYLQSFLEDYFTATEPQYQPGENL
The procedure, abridged:
as §1

For assay [3], the target named is PTK6 (Homo sapiens, UniProt Q13882). The procedure, abridged:
as §1

Assay [4] has as its target T3, JAK1(JH1) (Homo sapiens, UniProt P23458).
T3 construct: JAK1(JH1)
The procedure, abridged: as §1

Assay [5] has as its target T4, ULK1 (Homo sapiens, UniProt O75385).
T4 construct: AssayQuant Technologies, Inc. (contract laboratory that ran the panel)
T4 sequence (O75385 1-1050): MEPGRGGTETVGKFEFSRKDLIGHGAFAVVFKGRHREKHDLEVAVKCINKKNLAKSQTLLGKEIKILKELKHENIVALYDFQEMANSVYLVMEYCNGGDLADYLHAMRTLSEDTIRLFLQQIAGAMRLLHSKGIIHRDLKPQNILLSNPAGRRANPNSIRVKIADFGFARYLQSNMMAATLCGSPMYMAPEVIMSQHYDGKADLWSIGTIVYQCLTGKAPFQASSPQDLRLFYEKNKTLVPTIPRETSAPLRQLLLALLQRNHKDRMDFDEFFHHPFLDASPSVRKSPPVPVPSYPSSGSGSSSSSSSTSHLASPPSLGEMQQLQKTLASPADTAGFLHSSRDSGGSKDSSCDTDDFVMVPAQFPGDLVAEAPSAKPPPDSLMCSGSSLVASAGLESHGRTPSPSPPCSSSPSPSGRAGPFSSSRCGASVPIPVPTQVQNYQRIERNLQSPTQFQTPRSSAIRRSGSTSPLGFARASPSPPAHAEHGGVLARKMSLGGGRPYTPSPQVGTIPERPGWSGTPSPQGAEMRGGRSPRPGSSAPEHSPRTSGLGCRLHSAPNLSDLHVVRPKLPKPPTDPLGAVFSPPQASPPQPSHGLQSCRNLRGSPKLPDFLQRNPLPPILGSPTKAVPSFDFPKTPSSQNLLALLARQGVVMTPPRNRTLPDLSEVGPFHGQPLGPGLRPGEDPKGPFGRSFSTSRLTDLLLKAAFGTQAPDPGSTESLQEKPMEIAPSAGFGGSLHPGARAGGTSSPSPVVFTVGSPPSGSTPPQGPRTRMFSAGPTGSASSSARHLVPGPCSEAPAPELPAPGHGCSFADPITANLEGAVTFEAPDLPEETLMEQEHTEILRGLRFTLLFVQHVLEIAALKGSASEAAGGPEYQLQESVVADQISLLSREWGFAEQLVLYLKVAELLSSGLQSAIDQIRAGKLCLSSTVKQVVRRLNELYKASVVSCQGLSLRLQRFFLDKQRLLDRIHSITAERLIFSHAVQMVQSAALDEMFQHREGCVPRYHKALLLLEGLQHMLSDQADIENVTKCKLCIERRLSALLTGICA
The procedure, abridged: as §1

Assay [6] has as its target T5, IKBKB/IKKB (Homo sapiens, UniProt O14920).
T5 construct: AssayQuant Technologies, Inc. (service provider)
T5 sequence (O14920 1-756): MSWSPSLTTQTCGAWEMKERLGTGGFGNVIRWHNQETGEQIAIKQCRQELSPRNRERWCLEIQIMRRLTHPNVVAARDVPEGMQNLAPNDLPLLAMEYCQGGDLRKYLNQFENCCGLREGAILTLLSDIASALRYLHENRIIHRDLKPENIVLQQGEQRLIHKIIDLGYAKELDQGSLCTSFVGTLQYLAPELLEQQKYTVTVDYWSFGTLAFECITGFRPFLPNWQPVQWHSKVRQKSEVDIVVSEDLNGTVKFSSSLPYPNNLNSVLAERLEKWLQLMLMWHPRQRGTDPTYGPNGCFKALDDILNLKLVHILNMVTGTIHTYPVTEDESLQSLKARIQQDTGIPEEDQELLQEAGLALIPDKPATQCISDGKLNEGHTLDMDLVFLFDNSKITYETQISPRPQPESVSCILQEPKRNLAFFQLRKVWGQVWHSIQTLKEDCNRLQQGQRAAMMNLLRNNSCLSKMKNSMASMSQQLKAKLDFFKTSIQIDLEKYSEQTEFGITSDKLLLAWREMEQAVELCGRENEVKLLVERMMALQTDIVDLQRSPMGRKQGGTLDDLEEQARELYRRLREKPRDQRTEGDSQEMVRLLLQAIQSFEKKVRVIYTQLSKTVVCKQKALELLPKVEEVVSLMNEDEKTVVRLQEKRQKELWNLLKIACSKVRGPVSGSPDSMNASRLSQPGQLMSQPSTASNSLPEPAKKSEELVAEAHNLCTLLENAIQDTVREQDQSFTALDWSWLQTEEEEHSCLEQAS
The procedure, abridged:
as §1

The target in assay [7] is T6, SGK1 (Homo sapiens, UniProt O00141).
T6 construct: AssayQuant Technologies, Inc. (contract assay)
T6 sequence (O00141 1-431): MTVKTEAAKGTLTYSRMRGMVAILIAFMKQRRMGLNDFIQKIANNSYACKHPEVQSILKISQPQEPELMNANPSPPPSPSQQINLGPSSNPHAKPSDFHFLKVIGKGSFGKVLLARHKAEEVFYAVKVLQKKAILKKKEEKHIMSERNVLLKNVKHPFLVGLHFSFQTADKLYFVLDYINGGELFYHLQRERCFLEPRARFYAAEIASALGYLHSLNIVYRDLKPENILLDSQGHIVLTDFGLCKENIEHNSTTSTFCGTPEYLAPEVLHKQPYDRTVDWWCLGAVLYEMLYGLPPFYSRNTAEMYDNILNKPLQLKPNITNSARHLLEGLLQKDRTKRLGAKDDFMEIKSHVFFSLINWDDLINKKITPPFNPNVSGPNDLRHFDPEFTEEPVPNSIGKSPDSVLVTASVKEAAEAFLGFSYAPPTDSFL
The procedure, abridged: as §1

Sequence of PTK6 (Q13882 whole entry, species assumed): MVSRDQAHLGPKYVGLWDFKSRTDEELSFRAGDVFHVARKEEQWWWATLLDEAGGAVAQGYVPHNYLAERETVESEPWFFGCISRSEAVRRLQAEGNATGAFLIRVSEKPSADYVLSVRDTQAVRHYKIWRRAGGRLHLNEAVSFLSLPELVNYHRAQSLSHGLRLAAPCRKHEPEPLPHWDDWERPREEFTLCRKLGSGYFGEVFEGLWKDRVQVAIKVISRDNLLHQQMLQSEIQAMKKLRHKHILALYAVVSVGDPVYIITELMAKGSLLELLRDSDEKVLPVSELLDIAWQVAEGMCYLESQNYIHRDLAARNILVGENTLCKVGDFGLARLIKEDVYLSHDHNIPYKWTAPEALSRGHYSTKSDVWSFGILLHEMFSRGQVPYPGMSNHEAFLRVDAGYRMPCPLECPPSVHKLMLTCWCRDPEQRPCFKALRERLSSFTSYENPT
T3 sequence (P23458 875-1153 limits assumed, species assumed): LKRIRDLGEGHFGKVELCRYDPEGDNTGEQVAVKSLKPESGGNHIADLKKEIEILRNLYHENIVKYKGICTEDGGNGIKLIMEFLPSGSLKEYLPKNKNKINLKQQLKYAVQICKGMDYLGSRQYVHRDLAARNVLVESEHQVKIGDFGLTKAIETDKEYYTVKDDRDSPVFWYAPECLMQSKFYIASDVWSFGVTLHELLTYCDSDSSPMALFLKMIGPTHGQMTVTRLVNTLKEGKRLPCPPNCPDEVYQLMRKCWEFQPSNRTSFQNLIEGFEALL

For `C=CC(=O)N1CCCC(c2c(F)cc(C(N)=O)c3[nH]c4c(c23)CCCCC4)C1` (single isomer, unassigned) [Compound 5-6], the inhibition at 1 µM in assay [1] was 15.4%; in assay [2], 12%; in assay [3], -14.1%; in assay [4] it was 1.3%; in assay [5], -3.1%; in assay [6], 2.5%. Also, the inhibition at 1 µM in assay [7] was found to be 4.3%.
For `C=CC(=O)N1CCC[C@@H](c2c(F)cc(C(N)=O)c3[nH]c4c(c23)CC2(CC4)CC2)C1` [Compound 6-2, (S)-5-(1-acryloylpiperidin-3-yl)-6-fluoro-1,2,4,9-tetrahydrospiro[carbazole-3,1′-cyclopropane]-8-carboxamide], the inhibition at 1 µM in assay [1] is -63.9%; in assay [2], -5.2%; in assay [3], 22.2%; in assay [4], 25.6%; in assay [5] it was -23.6%; in assay [6], -7.6%. Moreover, the inhibition at 1 µM in assay [7] came to 10.7%.
As to `C=CC(=O)N1CCC[C@@H](c2c(F)cc(C(N)=O)c3[nH]c4c(c23)CCC4)C1` [Compound 10-2, (S)-8-(1-acryloylpiperidin-3-yl)-7-fluoro-1,2,3,4-tetrahydrocyclo-penta[b]indole-5-carboxamide], the inhibition at 1 µM in assay [1] was -12.9%; in assay [2], -24.6%; in assay [3] it was 10.1%; in assay [4] it was 1.9%; in assay [5], -6.1%; in assay [6] it was -17%. Besides, in assay [7], the inhibition at 1 µM was 14.8%.
